Test results taken from PubChem BioAssay (NCI).
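Growth conditions: 96-well plates. Treatment: test compound, 48 hours, 5 concentrations. Analysis: linear interpolation between bracketing concentrations; unreached endpoints set to highest concentration. GI50 marks 50% less growth. Definition used: TGI = concentration required for complete inhibition of growth.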

Experiments:
Assay in all cases: NCI tumour cell line growth inhibition, 48 h
MDA-MB-231 breast = system: MDA-MB-231 breast
HCC-2998 colon = system: HCC-2998 colon
SF-539 CNS = system: SF-539 CNS
EKVX NSCLC = system: EKVX NSCLC
SK-MEL-2 melanoma = system: SK-MEL-2 melanoma
MDA-MB-435 = system: MDA-MB-435
HL-60(TB) leukemia = system: HL-60(TB) leukemia
NCI-H23 lung = system: NCI-H23 lung
HCT-15 colon = system: HCT-15 colon
UACC-257 melanoma = system: UACC-257 melanoma
K-562 leukemia = system: K-562 leukemia
SF-268 CNS = system: SF-268 CNS
786-0 renal = system: 786-0 renal
SNB-19 CNS = system: SNB-19 CNS
OVCAR-4 ovarian = system: OVCAR-4 ovarian
M14 melanoma = system: M14 melanoma
SR leukemia = system: SR leukemia
NCI-H226 lung = system: NCI-H226 lung
IGROV1 ovarian = system: IGROV1 ovarian
RXF 393 renal = system: RXF 393 renal
PC-3 prostate = system: PC-3 prostate
CAKI-1 renal = system: CAKI-1 renal
SK-OV-3 ovarian = system: SK-OV-3 ovarian
UO-31 renal = system: UO-31 renal
MALME-3M melanoma = system: MALME-3M melanoma
HOP-62 NSCLC = system: HOP-62 NSCLC
A549 NSCLC = system: A549 NSCLC
SW-620 colon = system: SW-620 colon
MCF7 breast = system: MCF7 breast

`O=C(NNc1nc2cc(F)ccc2n2c(CN3CC4CNCC4C3)ccc12)c1ccncn1` (stereo not drawn) showed a GI50 (MDA-MB-231 breast) of 2.31 µM, a TGI (MDA-MB-231 breast) of 16.2 µM and a GI50 (HCC-2998 colon) of 3.05 µM. The TGI (HCC-2998 colon) was 17.5 µM, the GI50 (SF-539 CNS) was 1.56 µM and the TGI (SF-539 CNS) was 6.4 µM. For the same compound, the GI50 (EKVX NSCLC) was 0.441 µM, the TGI (EKVX NSCLC) was 9.23 µM and the GI50 (SK-MEL-2 melanoma) was 2.65 µM. It also gave a TGI (SK-MEL-2 melanoma) of 14.7 µM, a GI50 (MDA-MB-435) of 3.68 µM and a TGI (MDA-MB-435) of 17.6 µM. It also gave a GI50 (HL-60(TB) leukemia) of 1.23 µM, a TGI (HL-60(TB) leukemia) of 4.51 µM and a GI50 (NCI-H23 lung) of 2.31 µM. For the same compound, the TGI (NCI-H23 lung) was 10.4 µM, the GI50 (HCT-15 colon) was 0.746 µM and the TGI (HCT-15 colon) was 15.9 µM. The GI50 (UACC-257 melanoma) was 3.16 µM, the TGI (UACC-257 melanoma) was 11 µM and the GI50 (K-562 leukemia) was 1.76 µM. It also gave a TGI (K-562 leukemia) of 11.9 µM, a GI50 (SF-268 CNS) of 1.71 µM and a TGI (SF-268 CNS) of 15 µM. For the same compound, the GI50 (786-0 renal) was 0.5 µM, the TGI (786-0 renal) was 11.3 µM and the GI50 (SNB-19 CNS) was 2.67 µM. For the same compound, the TGI (SNB-19 CNS) was 16.6 µM, the GI50 (OVCAR-4 ovarian) was 1.56 µM and the TGI (OVCAR-4 ovarian) was 17.3 µM. It also gave a GI50 (M14 melanoma) of 0.804 µM, a TGI (M14 melanoma) of 4.74 µM and a GI50 (SR leukemia) of 0.751 µM. It also gave a TGI (SR leukemia) of 9.24 µM, a GI50 (NCI-H226 lung) of 0.943 µM and a TGI (NCI-H226 lung) of 6.73 µM. It also gave a GI50 (IGROV1 ovarian) of 2.36 µM, a TGI (IGROV1 ovarian) of 13.3 µM and a GI50 (RXF 393 renal) of 1.58 µM. For the same compound, the TGI (RXF 393 renal) was 12.8 µM, the GI50 (PC-3 prostate) was 2.11 µM and the TGI (PC-3 prostate) was 15.4 µM. For the same compound, the GI50 (CAKI-1 renal) was 0.654 µM, the TGI (CAKI-1 renal) was 12.8 µM and the GI50 (SK-OV-3 ovarian) was 0.984 µM. For the same compound, the TGI (SK-OV-3 ovarian) was 12.1 µM, the GI50 (UO-31 renal) was 0.822 µM and the TGI (UO-31 renal) was 11.7 µM. For the same compound, the GI50 (MALME-3M melanoma) was 2.17 µM, the TGI (MALME-3M melanoma) was 8.75 µM and the GI50 (HOP-62 NSCLC) was 0.686 µM. It also gave a TGI (HOP-62 NSCLC) of 12.1 µM, a GI50 (A549 NSCLC) of 2.09 µM and a TGI (A549 NSCLC) of 14.9 µM. For the same compound, the GI50 (SW-620 colon) was 2.55 µM, the TGI (SW-620 colon) was 23.1 µM and the GI50 (MCF7 breast) was 2 µM. For the same compound, the TGI (MCF7 breast) was 12.1 µM.
